Where two headings read alike, the source gives them in different places.
Tests used:
[1] = test system: HIF-2α HIS TAG-PASB Domain; assay: biochemical; format: binding
Excerpt: (§1) The term “scintillation proximity assay” (SPA) refers to a homogenous assay in which light is emitted when a radiolabeled ligand is brought into close proximity to a radiosensitive bead. The assay typically contains a target protein that contains a tag (e.g., His Tag, Glutathione S-transferase Tag). The tag on the protein is used to bind the target protein to the scintillation bead. Radiolabeled ligand (e.g., labeled with tritium) that binds to the protein is now in close proximity to the bead, and when the raidolabel (e.g., tritium) decays, the high energy particle hits the bead resulting in the emission of light that is detected by a detector, such as photomultiplier tube or CCD camera. When unlabeled ligands or compounds that bind to the protein are used in the assay, they displace the radiolabeled ligand, resulting in loss of signal.
(§2) The total assay volume was about 100 μL in the following configuration: 2-μL compound in DMSO, 88 μL buffer with protein and probe and 10 μL of SPA beads. […] To each compound, 88 μL of the buffer solution was then added. […] The percent inhibition was determined and IC50 values were calculated using the Dotmatics system based on the following equation: % inhibition=[(high control−sample)/(high control−low control)]×100.

[2] = test system: VEGF in culture medium of 786-O cells; assay: VEGF ELISA Assay; format: cell-based
Experimental: Four hours later, serial dilutions of 10× compound stocks were made in growth medium from 500×DMSO stocks, and 20 μL of those 10× stocks were added to each well to make final concentrations as follows (μM): 20, 6.7, 2.2, 0.74, 0.25, 0.082, 0.027, 0.009, 0.003, 0.001, 0. Each concentration had duplicated wells. About twenty hours later, the growth medium was removed by suction and each well was supplied with 180 μL of growth medium. About 20 μl freshly-made 10× compound stocks were added to each well. […] The EC50 was calculated by GraphPad Prism using the dose-response-inhibition (four parameter) equation. The cell seeded plate was then subjected to CellTiter-Glo luminescence cell viability assay (Promega) by adding about 50 μL of Celltiter Glo reagent into each well and shaking the plate for 8 minutes at 550 rpm (Thermomixer R, Eppendorf). The luminescence signals were read in a plate reader (3 second delay, 0.5 second/well integration time, Synergy 2 multi Detection Microplate reader) immediately.

786-O-Hif-Luc cells = assay: Luciferase Assay (HIF responsive element reporter); format: cell-based; details: read-out: Mean Luciferease EC50
Experimental: A pool of infected cells were then selected against 2 μg/mL of puromycin (P8833, Sigma) for 10 days followed by limited dilution to select single clones.
Each concentration was tested in triplicate. After about 24 hours, luciferase activity was determined using ONE-Glo Luciferase Assay Reagent (E6110, Promega) following the manufacturer's recommended procedure. EC50 were calculated by using Dotmatics software.

[3] = target: HIF-2α HIS TAG-PASB Domain (Homo sapiens, UniProt Q99814); assay: biochemical; format: binding
Excerpt: as §1, §2

[4] = 786-O-Hif-Luc cells, about 24 hours
[5] = displacement of Compound 120 probe, mean, read-out: Mean SPA IC50
[6] = 24 h, 786-O-Hif-Luc cells, about 24 hours

Chain of HIF-2α HIS TAG-PASB Domain (Homo sapiens, UniProt Q99814) (Q99814 whole entry, looked up, the tested form may be a part): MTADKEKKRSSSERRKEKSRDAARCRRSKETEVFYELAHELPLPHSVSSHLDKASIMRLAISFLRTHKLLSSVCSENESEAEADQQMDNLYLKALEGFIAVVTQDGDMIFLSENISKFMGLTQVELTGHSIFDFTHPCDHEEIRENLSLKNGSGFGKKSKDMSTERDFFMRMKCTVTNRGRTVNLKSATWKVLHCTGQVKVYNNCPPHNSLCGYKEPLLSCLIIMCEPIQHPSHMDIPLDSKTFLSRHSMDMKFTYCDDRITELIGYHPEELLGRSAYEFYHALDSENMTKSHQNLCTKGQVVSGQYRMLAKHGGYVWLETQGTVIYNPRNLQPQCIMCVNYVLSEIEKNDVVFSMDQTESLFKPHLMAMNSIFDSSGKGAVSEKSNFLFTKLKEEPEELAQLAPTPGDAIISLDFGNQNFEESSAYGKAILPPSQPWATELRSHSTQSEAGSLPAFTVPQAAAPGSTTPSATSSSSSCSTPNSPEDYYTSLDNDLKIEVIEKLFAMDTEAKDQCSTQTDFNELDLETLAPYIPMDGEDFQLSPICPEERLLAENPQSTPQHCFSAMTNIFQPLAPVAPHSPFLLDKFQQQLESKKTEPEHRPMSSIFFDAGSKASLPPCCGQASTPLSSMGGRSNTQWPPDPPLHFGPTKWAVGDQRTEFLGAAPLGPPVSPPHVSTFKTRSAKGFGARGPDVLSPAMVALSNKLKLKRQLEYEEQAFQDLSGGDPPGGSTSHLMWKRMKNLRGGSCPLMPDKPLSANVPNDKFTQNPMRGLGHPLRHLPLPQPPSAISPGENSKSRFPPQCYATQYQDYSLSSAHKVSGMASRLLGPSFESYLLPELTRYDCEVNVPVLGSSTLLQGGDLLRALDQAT

Row | SMILES | IC50 [3, 5] | IC50 [1, 5] | EC50 (786-O-Hif-Luc cells; [6]) | EC50 (786-O-Hif-Luc cells; [4]) | further results
1 | O=S1(=O)C[C@@H](O)c2c1ccc(Oc1cc(F)cc(Cl)c1)c2Br [(3S)-4-bromo-5-(3-chloro-5-fluoro-phenoxy)-1,1-dioxo-2,3-dihydrobenzothiophen-3-ol] |  |  |  |  | IC50 ([1]; unnumbered compounds listed by structure and name, read-out: IC50 value in SPA): > 100 µM
2 | N#Cc1c(Oc2cc(F)cc(Cl)c2)ccc2c1C(O)CS2(=O)=O (centres unmarked) [Compound 7, 5-(3-chloro-5-fluorophenoxy)-3-hydroxy-2,3-dihydrobenzo[b]thiophene-4-carbonitrile 1,1-dioxide] |  |  |  | 0.45 µM | EC50 ([2]; Homo sapiens, 786-0): 0.33 µM
3 | O=S1(=O)c2ccc(Oc3cc(F)cc(Cl)c3)c(Br)c2C(O)C1(F)F (centres unmarked) [Compound 9, 4-Bromo-5-(3-chloro-5-fluorophenoxy)-2,2-difluoro-3-hydroxy-2,3-dihydrobenzo[b]thiophene 1,1-dioxide] | 0.002 µM |  |  | 0.05 µM | EC50 ([2]; Homo sapiens, 786-0): 0.065 µM
4 | Cc1c(Oc2cc(F)cc(Cl)c2)ccc2c1C(O)C(F)(F)S2(=O)=O (centres unmarked) [Compound 13, 5-(3-Chloro-5-fluorophenoxy)-2,2-difluoro-3-hydroxy-4-methyl-2,3-dihydrobenzo[b]thiophene 1,1-dioxide] |  | 0.015 µM |  |  | EC50 (786-O-Hif-Luc cells; 24 h): 0.45 µM
5 | O=S1(=O)c2ccc(Oc3cc(F)cc(Cl)c3)cc2C(O)C1(F)F (centres unmarked) [Compound 16, 5-(3-Chloro-5-fluorophenoxy)-2,2-difluoro-3-hydroxy-2,3-dihydrobenzo[b]thiophene 1,1-dioxide] |  | 1.88 µM |  |  | 
6 | NC1c2c(ccc(Oc3cc(F)cc(F)c3)c2Br)S(=O)(=O)C1(F)F (centres unmarked) [Compound 30, 3-Amino-4-bromo-5-(3,5-difluorophenoxy)-2,2-difluoro-2,3-dihydrobenzo[b]thiophene 1,1-dioxide] | < 0.005 µM |  |  | 1.7 µM | 
7 | O=S1(=O)c2ccc(Oc3cncc(Cl)c3)c(C(F)F)c2C(O)C1(F)F (centres unmarked) [Compound 35, 5-((5-Chloropyridin-3-yl)oxy)-4-(difluoromethyl)-2,2-difluoro-3-hydroxy-2,3-dihydrobenzo[b]thiophene 1,1-dioxide] |  | 0.23 µM |  |  | EC50 (786-O-Hif-Luc cells; 24 h): 0.15 µM
8 | [2H][C@@]1(O)c2c(ccc(Oc3cc(F)cc(C#N)c3)c2C(F)F)S(=O)(=O)C1(F)F [Compound 43, (R)-3-((4-(Difluoromethyl)-2,2-difluoro-3-hydroxy-1,1-dioxido-2,3-dihydrobenzo[b]thiophen-5-yl-3-d)oxy)-5-fluorobenzonitrile] |  | […] |  | 0.006 µM | 
9 | N=S1(=O)c2ccc(Oc3cc(F)cc(F)c3)c(C(F)F)c2C(O)C1(F)F (centres unmarked) [Compound 53, 4-(difluoromethyl)-5-(3,5-difluorophenoxy)-2,2-difluoro-3-hydroxy-1-imino-2,3-dihydro-1H-1λ^4-benzo[b]thiophene 1-oxide] |  |  |  | 0.039 µM | EC50 [2]: 0.067 µM
10 | O=S1(=O)c2ccc(Oc3cc(F)cc(Cl)c3)c(Br)c2[C@H](O)C1(F)F [Compound 59, (3S)-4-Bromo-5-(3-chloro-5-fluoro-phenoxy)-2,2-difluoro-1,1-dioxo-3H-benzothiophen-3-ol] | 0.06 µM |  |  | 0.17 µM | 
11 | N#Cc1c(Oc2cc(F)cc(F)c2)ccc2c1[C@@H](O)CS2(=O)=O [Compound 68, (R)-5-(3,5-difluorophenoxy)-3-hydroxy-2,3-dihydrobenzo[b]thiophene-4-carbonitrile 1,1-dioxide] |  |  | 0.37 µM |  | IC50 [3]: 0.125 µM

More lines, main results first:

Row | IC50 [3, 5] | IC50 [1, 5] | EC50 (786-O-Hif-Luc cells; [6]) | SMILES | EC50 (786-O-Hif-Luc cells; [4]) | further results
12 |  | 0.045 µM |  | N#Cc1c(Oc2cc(F)cc(Cl)c2)ccc2c1C(O)C(F)(F)S2(=O)=O (centres unmarked) [Compound 10, 5-(3-chloro-5-fluorophenoxy)-2,2-difluoro-3-hydroxy-2,3-dihydrobenzo[b]thiophene-4-carbonitrile 1,1-dioxide] | 4.17 µM | 
13 | 4.14 µM |  | 0.54 µM | N=S1(=O)c2ccc(Oc3cc(F)cc(F)c3)c(Br)c2C(O)C1(F)F (centres unmarked) [Compound 31, 4-Bromo-5-(3,5-difluorophenoxy)-2,2-difluoro-3-hydroxy-1-imino-2,3-dihydro-1H-1λ^4-benzo[b]thiophene 1-oxide] |  | 
14 |  | 0.12 µM |  | N#Cc1cncc(Oc2ccc3c(c2C(F)F)C(O)C(F)(F)S3(=O)=O)c1 (centres unmarked) [Compound 37, 5-((4-(Difluoromethyl)-2,2-difluoro-3-hydroxy-1,1-dioxido-2,3-dihydrobenzo[b]thiophen-5-yl)oxy)nicotinonitrile] | 0.17 µM | 
15 |  | 2.42 µM |  | N#Cc1cc(F)cc(Oc2ccc3c(c2C(F)F)C(=O)C(F)(F)S3(=O)=O)c1 [Compound 39, 3-((4-(Difluoromethyl)-2,2-difluoro-1,1-dioxido-3-oxo-2,3-dihydrobenzo[b]thiophen-5-yl)oxy)-5-fluorobenzonitrile] | 2.79 µM | 
16 |  | 21.9 µM |  | CC1(C)C(O)c2c(ccc(Oc3cc(F)cc(Cl)c3)c2Br)S1(=O)=O (centres unmarked) [Compound 60, 4-Bromo-5-(3-chloro-5-fluoro-phenoxy)-2,2-dimethyl-1,1-dioxo-3H-benzothiophen-3-ol] |  | 
17 | 0.75 µM |  | 0.49 µM | N#Cc1c(Oc2cccc(F)c2)ccc2c1[C@@H](O)CS2(=O)=O [Compound 76, (R)-5-(3-fluorophenoxy)-3-hydroxy-2,3-dihydrobenzo[b]thiophene-4-carbonitrile 1,1-dioxide] |  | 
18 | 0.12 µM |  | 0.095 µM | N#Cc1cncc(Oc2ccc3c(c2Br)[C@@H](O)C(F)(F)S3(=O)=O)c1 [Compound 78, (R)-5-((4-Bromo-2,2-difluoro-3-hydroxy-1,1-dioxido-2,3-dihydrobenzo[b]thiophen-5-yl)oxy)nicotinonitrile] |  | EC50 ([2]; Homo sapiens, 786-0): 0.33 µM
19 |  |  | 5.4 µM | CC(C)Oc1ccc2c(c1C#N)C(C)(O)C(F)(F)S2(=O)=O (centres unmarked) [Compound 110, 2,2-Difluoro-3-hydroxy-5-isopropoxy-3-methyl-2,3-dihydrobenzo[b]thiophene-4-carbonitrile 1,1-dioxide] |  | 
20 |  |  | 0.018 µM | C[C@@]1(O)c2c(ccc(Oc3cc(F)cc(C#N)c3)c2C#N)S(=O)(=O)C1(F)F [Compound 112, (R)-5-(3-cyano-5-fluorophenoxy)-2,2-difluoro-3-hydroxy-3-methyl-2,3-dihydrobenzo[b]thiophene-4-carbonitrile 1,1-dioxide] |  | EC50 ([2]; Homo sapiens, 786-0): 0.031 µM
21 |  |  | 0.8 µM | N[C@@H]1c2c(ccc(Oc3cc(F)cc(Br)c3)c2Br)S(=O)(=O)C1(F)F [Compound 116, (R)-3-Amino-4-bromo-5-(3-bromo-5-fluorophenoxy)-2,2-difluoro-2,3-dihydrobenzo[b]thiophene 1,1-dioxide] |  | 
22 | 1.23 µM |  | 4.6 µM | N#Cc1cc(F)cc(Oc2ccc3c(c2C#N)C(N)C(F)(F)S3(=O)=O)c1 (centres unmarked) [Compound 118, 3-Amino-5-(3-cyano-5-fluorophenoxy)-2,2-difluoro-2,3-dihydrobenzo[b]thiophene-4-carbonitrile 1,1-dioxide] |  | 

Source: patent publication US9884843B2 (Peloton Therapeutics, Inc., priority 2013, dated 2018)
